# What was measured:
# Assay type in all cases: in vivo
# corn [1] = test: Example 2, Procedure II: dichloroacetamide antidotes against Herbicide No. 1; settings: Herb. No. 1 0.14 kg/ha + antidote 0.56 kg/ha
# Procedure: (§1) Containers were filled and compacted with a fumigated silt loam top soil to a depth of about 1.3 cm from the top of the container. A first container was designated as an untreated control, a second container was designated as a herbicide control, and a third container was designated as a herbicide + antidote test container. Each of the containers was seeded with a crop species. A measured amount of herbicide dispersed or dissolved in acetone was applied to a measured quantity of soil. To this same quantity of soil treated with herbicide, there was added a measured amount of antidote dispersed or dissolved in acetone. The quantity of soil treated with the herbicide and antidote was thoroughly mixed to incorporate the herbicide and antidote in the soil uniformly. The seed bed in the third container of soil was covered with the soil treated with the herbicide and antidote and the container was leveled. For each test series, the seed beds of the first and second containers were likewise covered by soil layers. the cover layer of the first container was not treated with herbicide or antidote.
# (§2) The containers were then placed on a bench in a greenhouse and sub-irrigated as required for the duration of the test. […] Plant response is measured in terms of percent injury. Antidote efficacy is indicated as the difference in plant injury by the herbicide(s) without the antidote and with the antidote.
# (§3) This procedure is the same as Procedure I, but modified in the manner that after incorporation of the chemicals (herbicide and antidote) the containers with the covered seedbed were treated with an initial overhead irrigation equivalent to 0.6 cm rainfall, then subsequently sub-irrigated as required on greenhouse benches.
# In this example, a plurality of dichloroacetamide antidotes were tested for their safening efficacy against Herbicide No. 1 in corn, using Procedure II. In this test the weed was velvetleaf; barnyardgrass was not present in this test.
# corn [2] = test: Example 3, Procedure I: antidotes against Herbicide No. 1
# In short: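 Herbicide and antidote, each in acetone, mixed into a soil layer covering the seeded corn bed; untreated and herbicide-only controls run alongside. Greenhouse, sub-irrigated, barnyardgrass present; herbicide 4.48 down to 0.56 kg/ha. Percent injury scored; efficacy = injury without minus with antidote.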
# corn [3] = test: Example 5, Procedure I: Herbicide No. 1 + alachlor (No. 7) with Antidote Nos. 15 and 16
# In short: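 Greenhouse pot test in silt loam; herbicide No. 1 plus alachlor co-herbicide and antidote, each applied in acetone, mixed into cover soil over seeded beds, sub-irrigated. Percent injury scored; antidote efficacy as injury difference without vs with antidote.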
# corn [4] = test: Example 10, Procedure II: Herbicide No. 1 + propachlor (No. 5) with antidotes
# Procedure: as §1, §2, §3
# In this test, the safening effect of various antidotes on the herbicidal combination of Herbicide No. 1 and another α-chloroacetanilide co-herbicide, propachlor, (Herbicide No. 5) was investigated. Propachlor is the active ingredient in the commercial herbicide RAMROD®. Procedure II was also used in this test as in the preceding example.
# corn [5] = test: Example 11, Procedure II: Herbicide No. 1 + metazachlor (No. 14) with antidotes
# Procedure: as §1, §2, §3
# In this example, yet another α-chloroacetanilide co-herbicide, metazachlor (Herbicide No. 14) was combined with Herbicide No. 1 for investigation of the effect of various safeners on that composition. Metazachlor is the active ingredient in the commercial herbicide BUTISAN® S, used here as a 500 g/L formulation.
# corn [6] = test: Example 13, Procedure II: Herbicide No. 1 + acetochlor (No. 6) with dichloroacetamide antidotes
# In short: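 Corn seeded in silt loam, covered with soil into which herbicide No. 1 plus acetochlor and dichloroacetamide antidote (acetone) were incorporated, velvetleaf present. Initial overhead irrigation equivalent to 0.6 cm rainfall, then greenhouse sub-irrigation. Percent injury scored; safening taken as injury difference without versus with antidote.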
# corn [7] = test: Example 15, Procedure II: Herbicide No. 1 + butylate (No. 10) with antidotes
# Procedure: as §1, §2, §3
# This example describes experiments designed to investigate the antidotal efficacy of a plurality of antidotes against the herbicidal action of a combination of Herbicide No. 1 and butylate in corn and the prevalent weeds barnyardgrass and velvetleaf. The antidotes used in these experiments were Nos. 1-10, 12, 13 and 15.
# The test procedure used in these experiments was that of Procedure II described above. The antidotes were applied to a soil cover layer by pipet after spraying the herbicides onto the soil, followed by incorporation and overhead irrigation.
smiles,measurement,setting,value
CC1(C)OC(c2ccco2)CN1C(=O)C(Cl)Cl (centres unmarked) [compound 15],% Injury Corn,corn [1],5%
same,% Injury Corn,corn [2]; Herb. No. 1 0.56 kg/ha + antidote 0.56 kg/ha,0%
same,% Injury Corn,corn [2]; Herb. No. 1 0.56 kg/ha + antidote 2.24 kg/ha,0%
same,% Injury Corn,corn [2]; Herb. No. 1 0.56 kg/ha + antidote 8.96 kg/ha,0%
same,% Injury Corn,corn [2]; Herb. No. 1 1.12 kg/ha + antidote 0.56 kg/ha,0%
same,% Injury Corn,corn [2]; Herb. No. 1 1.12 kg/ha + antidote 2.24 kg/ha,0%
same,% Injury Corn,corn [2]; Herb. No. 1 1.12 kg/ha + antidote 8.96 kg/ha,0%
same,% Injury Corn,corn [2]; Herb. No. 1 2.24 kg/ha + antidote 0.56 kg/ha,15%
same,% Injury Corn,corn [2]; Herb. No. 1 2.24 kg/ha + antidote 2.24 kg/ha,0%
same,% Injury Corn,corn [2]; Herb. No. 1 2.24 kg/ha + antidote 8.96 kg/ha,0%
same,% Injury Corn,corn [2]; Herb. No. 1 4.48 kg/ha + antidote 0.56 kg/ha,0%
same,% Injury Corn,corn [2]; Herb. No. 1 4.48 kg/ha + antidote 2.24 kg/ha,5%
same,% Injury Corn,corn [2]; Herb. No. 1 4.48 kg/ha + antidote 8.96 kg/ha,0%
same,% Injury Corn,"corn [2]; antidote 8.96 kg/ha alone, no herbicide",0%
same,% Injury Corn,corn [3]; Herbicide No.1 4.48 + No.7 0.56 kg/ha + antidote 0.56 kg/ha,23%
same,% Injury Corn,corn [3]; Herbicide No.1 4.48 + No.7 0.56 kg/ha + antidote 2.24 kg/ha,40%
same,% Injury Corn,corn [3]; Herbicide No.1 4.48 + No.7 2.24 kg/ha + antidote 0.56 kg/ha,30%
same,% Injury Corn,corn [3]; Herbicide No.1 4.48 + No.7 2.24 kg/ha + antidote 2.24 kg/ha,23%
same,% Injury Corn,corn [3]; Herbicide No.1 6.72 + No.7 0.56 kg/ha + antidote 0.56 kg/ha,25%
same,% Injury Corn,corn [3]; Herbicide No.1 6.72 + No.7 0.56 kg/ha + antidote 2.24 kg/ha,25%
same,% Injury Corn,corn [3]; Herbicide No.1 6.72 + No.7 2.24 kg/ha + antidote 0.56 kg/ha,45%
same,% Injury Corn,corn [3]; Herbicide No.1 6.72 + No.7 2.24 kg/ha + antidote 2.24 kg/ha,50%
same,% Injury Corn,"corn [4]; Herbicide No.1 0.14 kg/ha + Herbicide No.5 4.48 kg/ha, antidote rate 2.24 kg/ha",0%
same,% Injury Corn,"corn [4]; Herbicide No.1 0.14 kg/ha + Herbicide No.5 4.48 kg/ha, antidote rate 8.96 kg/ha",0%
same,% Injury Corn,"corn [4]; Herbicide No.1 0.56 kg/ha + Herbicide No.5 4.48 kg/ha, antidote rate 2.24 kg/ha",10%
same,% Injury Corn,"corn [4]; Herbicide No.1 0.56 kg/ha + Herbicide No.5 4.48 kg/ha, antidote rate 8.96 kg/ha",10%
same,% Injury Corn,"corn [5]; Herbicide No.1 0.56 kg/ha + Herbicide No.14 3.36 kg/ha, antidote rate 2.24 kg/ha",65%
same,% Injury Corn,"corn [5]; Herbicide No.1 0.56 kg/ha + Herbicide No.14 3.36 kg/ha, antidote rate 8.96 kg/ha",65%
same,% Injury Corn,"corn [5]; Herbicide No.1 1.12 kg/ha + Herbicide No.14 3.36 kg/ha, antidote rate 2.24 kg/ha",25%
same,% Injury Corn,"corn [5]; Herbicide No.1 1.12 kg/ha + Herbicide No.14 3.36 kg/ha, antidote rate 8.96 kg/ha",40%
same,% Injury Corn,"corn [6]; Herbicide No.1 0.56 kg/ha + Herbicide No.6 4.48 kg/ha, antidote rate 0.56 kg/ha",5%
same,% Injury Corn,"corn [6]; Herbicide No.1 0.56 kg/ha + Herbicide No.6 4.48 kg/ha, antidote rate 2.24 kg/ha",15%
same,% Injury Corn,"corn [6]; Herbicide No.6 4.48 kg/ha, no Herbicide No.1, antidote rate 0.56 kg/ha",5%
same,% Injury Corn,"corn [6]; Herbicide No.6 4.48 kg/ha, no Herbicide No.1, antidote rate 2.24 kg/ha",15%
same,% Injury Corn,"corn [7]; Herbicide No.1 0.56 kg/ha + Herbicide No.10 6.72 kg/ha, antidote rate 2.24 kg/ha",20%
same,% Injury Corn,"corn [7]; Herbicide No.1 0.56 kg/ha + Herbicide No.10 6.72 kg/ha, antidote rate 8.96 kg/ha",10%
same,% Injury Corn,"corn [7]; Herbicide No.1 1.12 kg/ha + Herbicide No.10 6.72 kg/ha, antidote rate 2.24 kg/ha",15%
same,% Injury Corn,"corn [7]; Herbicide No.1 1.12 kg/ha + Herbicide No.10 6.72 kg/ha, antidote rate 8.96 kg/ha",15%

# — patent publication EP0603240B1, “SAFENING HERBICIDAL PYRAZOLYLSULFONYLUREAS” (priority 1991, dated 1993)
